Measured values taken from ChEMBL document CHEMBL1137473, “Pyrazole-based cathepsin S inhibitors with improved cellular potency” (Bioorg Med Chem Lett, 2007).
Calls of active or inactive are those of the source. The calls are words filed in the database; no cut-off is given here.

Experiments:
Cathepsin S [1] = target: T1, Cathepsin S (Homo sapiens, UniProt P25774); assay: Inhibition of human cathepsin S
Target sequence in this assay (P25774 whole entry): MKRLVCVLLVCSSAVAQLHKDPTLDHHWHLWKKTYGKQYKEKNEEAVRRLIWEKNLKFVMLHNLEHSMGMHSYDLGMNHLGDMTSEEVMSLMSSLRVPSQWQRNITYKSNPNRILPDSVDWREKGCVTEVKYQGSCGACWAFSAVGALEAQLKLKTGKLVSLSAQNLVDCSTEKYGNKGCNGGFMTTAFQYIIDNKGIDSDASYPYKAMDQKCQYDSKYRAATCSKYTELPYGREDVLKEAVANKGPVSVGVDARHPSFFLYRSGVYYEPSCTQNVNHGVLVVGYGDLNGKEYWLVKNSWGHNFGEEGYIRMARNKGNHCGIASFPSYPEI

Legumain (Homo sapiens) = target: T2, Legumain (Homo sapiens) (UniProt Q99538); assay: Inhibition of legumain upto 5 uM
T2 sequence (whole entry): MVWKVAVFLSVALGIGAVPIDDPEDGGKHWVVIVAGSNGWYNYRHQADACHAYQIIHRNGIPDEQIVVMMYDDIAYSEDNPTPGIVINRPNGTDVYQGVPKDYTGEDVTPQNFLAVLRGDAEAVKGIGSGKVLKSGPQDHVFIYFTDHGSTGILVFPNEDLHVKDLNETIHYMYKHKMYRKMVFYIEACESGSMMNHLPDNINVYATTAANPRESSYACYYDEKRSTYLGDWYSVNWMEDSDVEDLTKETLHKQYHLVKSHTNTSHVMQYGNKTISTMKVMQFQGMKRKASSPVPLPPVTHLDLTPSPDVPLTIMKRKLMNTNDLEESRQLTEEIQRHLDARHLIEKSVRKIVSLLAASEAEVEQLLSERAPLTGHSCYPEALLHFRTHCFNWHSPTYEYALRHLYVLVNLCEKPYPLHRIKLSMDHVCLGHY

[2] = target: T3, Cathepsin E (Homo sapiens) (UniProt P14091); assay: Inhibition of cathepsin E upto 5 uM
T3 sequence (whole entry): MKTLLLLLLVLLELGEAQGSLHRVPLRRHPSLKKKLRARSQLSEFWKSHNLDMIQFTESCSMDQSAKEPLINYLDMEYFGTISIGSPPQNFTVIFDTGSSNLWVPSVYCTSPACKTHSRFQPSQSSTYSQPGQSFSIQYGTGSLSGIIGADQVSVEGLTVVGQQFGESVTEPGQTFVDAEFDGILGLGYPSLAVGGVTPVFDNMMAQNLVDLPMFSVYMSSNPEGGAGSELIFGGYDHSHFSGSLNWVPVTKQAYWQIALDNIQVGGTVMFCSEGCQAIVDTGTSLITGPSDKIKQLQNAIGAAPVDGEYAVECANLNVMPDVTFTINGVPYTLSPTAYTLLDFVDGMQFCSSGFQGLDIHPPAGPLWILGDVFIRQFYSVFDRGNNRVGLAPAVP

[3] = target: Cathepsin B (Homo sapiens) (UniProt P07858); assay: Inhibition of cathepsin B upto 5 uM
[4] = target: Procathepsin L (Homo sapiens) (UniProt P07711); assay: Inhibition of cathepsin L upto 5 uM
Cathepsin S [5] = target: T1, Cathepsin S; assay: Inhibition of cathepsin S in human JY cells upto 10 uM by invariant chain degradation assay; assay type: cell-based
Target sequence in this assay (P25774 115-331 limits assumed): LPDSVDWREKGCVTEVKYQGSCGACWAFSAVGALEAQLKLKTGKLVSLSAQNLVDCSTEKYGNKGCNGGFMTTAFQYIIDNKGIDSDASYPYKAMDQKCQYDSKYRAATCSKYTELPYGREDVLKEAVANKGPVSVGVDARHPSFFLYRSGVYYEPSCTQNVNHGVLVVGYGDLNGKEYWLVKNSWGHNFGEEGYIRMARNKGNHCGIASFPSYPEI

Cathepsin S [6] = target: T1, Cathepsin S; assay: Inhibition of cathepsin S in human JY cells by invariant chain degradation assay; assay type: cell-based
Target sequence in this assay (P25774 whole entry): as the sequence (P25774 whole entry) above

Procathepsin L (Homo sapiens), sequence (P07711 114-333 limits assumed): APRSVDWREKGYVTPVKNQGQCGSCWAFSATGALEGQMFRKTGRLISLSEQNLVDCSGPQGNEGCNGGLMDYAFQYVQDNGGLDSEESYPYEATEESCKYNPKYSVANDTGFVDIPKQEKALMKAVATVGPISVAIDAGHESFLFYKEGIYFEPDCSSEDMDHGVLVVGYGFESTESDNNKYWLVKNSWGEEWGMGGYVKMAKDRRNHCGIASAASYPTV

SMILES	IC50 (Cathepsin S [1])	IC50 (Cathepsin S [6])	further results
CC(=O)N1CCc2c(c(-c3ccc(C(F)(F)F)cc3)nn2CC(O)CN2CCC(c3csc4cc(F)ccc34)CC2)C1 (stereo unspecified)	0.29 µM	–	–
COC(=O)c1oc2cc(F)ccc2c1C1CCN(CC(O)Cn2nc(-c3ccc(C(F)(F)F)cc3)c3c2CCN(C(C)=O)C3)CC1 (stereo unspecified)	0.22 µM	–	–
CS(=O)(=O)N1CCc2c(c(-c3ccc(C(F)(F)F)cc3)nn2CC(O)CN2CCC(c3c[nH]c4cnccc34)CC2)C1 (stereo unspecified)	–	–	Activity (Legumain (Homo sapiens)): inactive; Activity [2]: inactive; Activity [3]: inactive; Activity [4]: inactive
CS(=O)(=O)N1CCc2c(c(-c3ccc(C(F)(F)F)cc3)nn2CC(O)CN2CCC(c3c[nH]c4ccncc34)CC2)C1 (stereo unspecified)	–	–	Activity (Legumain (Homo sapiens)): inactive; Activity [2]: inactive; Activity [3]: inactive; Activity [4]: inactive
CC(=O)N1CCc2c(c(-c3ccc(C(F)(F)F)cc3)nn2CC(O)CN2CCC(c3c[nH]c4ccc(Cl)cc34)CC2)C1 (stereo unspecified)	0.095 µM	–	Activity (Cathepsin S [5]): inactive
COC(=O)c1sc2cc(F)ccc2c1C1CCN(CCCn2nc(-c3ccc(C(F)(F)F)cc3)c3c2CCN(S(C)(=O)=O)C3)CC1	0.13 µM	1.8 µM	–
N#Cc1ccccc1N1CCN(CC(Cn2nc(-c3ccc(I)cc3)c3c2CCN(C(N)=O)C3)OC(N)=O)CC1 (stereo unspecified)	0.01 µM	0.8 µM	–
CS(=O)(=O)N1CCc2c(c(-c3ccc(C(F)(F)F)cc3)nn2CCCN2CCC(c3c(C(=O)O)sc4cc(F)ccc34)CC2)C1	0.1 µM	> 10 µM	–
CS(=O)(=O)N1CCc2c(c(-c3ccc(C(F)(F)F)cc3)nn2CC(O)CN2CCC(c3c[nH]c4cccnc34)CC2)C1 (stereo unspecified)	–	–	Activity (Legumain (Homo sapiens)): inactive; Activity [2]: inactive; Activity [3]: inactive; Activity [4]: inactive
CC(=O)N1CCc2c(c(-c3ccc(C(F)(F)F)cc3)nn2CC(O)CN2CCC(c3coc4cc(F)ccc34)CC2)C1 (stereo unspecified)	0.36 µM	–	–
CS(=O)(=O)N1CCc2c(c(-c3ccc(Br)cc3)nn2CC(O)CN2CCC(c3c[nH]c4ncccc34)CC2)C1 (stereo unspecified)	0.195 µM	–	–
CS(=O)(=O)N1CCc2c(c(-c3ccc(C(F)(F)F)cc3)nn2CC(O)CN2CCC(c3c[nH]c4ncccc34)CC2)C1 (stereo unspecified)	–	–	Activity (Legumain (Homo sapiens)): inactive; Activity [2]: inactive; Activity [4]: inactive
CS(=O)(=O)N1CCc2c(c(-c3ccc(C(F)(F)F)cc3)nn2CC(O)CN2CCC(N3C(=O)COc4ccccc43)CC2)C1 (stereo unspecified)	0.01 µM	0.8 µM	–
COC(=O)c1sc2cc(F)ccc2c1C1CCN(CC(O)Cn2nc(-c3ccc(C(F)(F)F)cc3)c3c2CCN(C(C)=O)C3)CC1 (stereo unspecified)	0.14 µM	–	–
Cn1c(=O)n(C2CCN(CCCn3nc(-c4ccc(Cl)c(Cl)c4)c4c3CCN(S(C)(=O)=O)C4)CC2)c2ccccc21	0.01 µM	0.8 µM	–
CS(=O)(=O)N1CCc2c(c(-c3ccc(C(F)(F)F)cc3)nn2CC(O)CN2CCC(c3csc4cc(F)ccc34)CC2)C1 (stereo unspecified)	0.18 µM	–	–
CS(=O)(=O)N1CCc2c(c(-c3ccc(Br)cc3)nn2CC(O)CN2CCC(c3c[nH]c4ccncc34)CC2)C1 (stereo unspecified)	0.077 µM	0.15 µM	–
CN(C)C(=O)c1sc2cc(F)ccc2c1C1CCN(CCCn2nc(-c3ccc(C(F)(F)F)cc3)c3c2CCN(S(C)(=O)=O)C3)CC1	0.37 µM	–	–
